Source: PMC5131319, “Occurrence, temporal trends, and half-lives of perfluoroalkyl acids (PFAAs) in occupational workers in China” (Scientific Reports, 2016)
Values joined by “and” are separate entries in the source; they are usually repeats but may differ in a detail not shown here. Equal entries are not always repeated. Where two headings read alike, the source gives them in different places.

Assays:
[1] = PFAA concentration in serum of occupational workers (HPLC-ESI/MS/MS); assay type: in vivo, human; design: Serum PFAA level: unit: ng/mL; details: for Serum concentration, geometric mean: all occupational workers
Experimental: The selected fluorochemical plant (Henxin Chemical Plant) in this study is one of the largest producers of PFOS-related chemicals in China and is located in Yingcheng, Hubei province. Perfluoroalkyl sulfonic acids (PFSAs) and perfluorotertiary amines are synthesized through an electro-chemical fluorination (ECF) process. We collected paired serum and urine samples from the occupational workers in the plant for five consecutive years, and the sampling activities were carried out in Nov. 2008, Nov. 2009, Nov. 2010, Dec. 2011, and Dec 2012, respectively. The Medical Research Ethics Committee, School of Medicine, Jianghan University, approved the ethics of this study, and all methods were performed in accordance with the relevant guidelines and regulations, moreover, all volunteers gave written informed consent. Demographic information of the donors, including gender, age, length of service, and work assignment, was collected with a questionnaire (Table S1). The sampled population included a total of 302 occupational workers, of which there were 89 female and 213 male participants. In total, 302 serum and 274 urine samples were collected.
The participants were told not to eat breakfast before the sampling, and morning urine samples and blood samples were collected. Serum was separated from the blood by centrifugation at 1100 × g at 4 °C for 10 min and then placed on ice. Serum samples were then transferred to our laboratory on the same day and stored in polypropylene containers at −20 °C until analysis.
All pre-treatment methods and instrument analysis of PFAAs in serum and urine samples are based on previous studies with minor modifications (see Supplementary Information)[3][31]. Based on the PFAA profiles in environmental matrices around the same plant in our previous study, only 3 main PFAAs, PFHxS, PFOA, and PFOS, were analyzed in the obtained serum and urine samples. Instrumental analysis of the PFAAs was performed by a HPLC-ESI/MS/MS system (HPLC: Waters 2695, MS: Waters Quattro Premier XE). The limits of detection (LODs) of PFHxS, PFOA, and PFOS were 0.020, 0.063, and 0.018 ng mL^−1 for serum samples and 0.008, 0.025, and 0.007 ng mL^−1 for urine samples, respectively. A procedural blank was performed for every batch of seven samples, and all of the blank levels were below the LODs. […] Details of quality assurance and quality control of the chemical analysis can be found in the Supplementary Information.

[2] = cited from earlier work; for Serum concentration, median: workers in another fluorochemical plant in China
[3] = Electrolytic Department, length of service < 1 year
[4] = Fabric finishing agent department, N 8
[5] = Management Office, length of service 1-3 years
[6] = Management Office, length of service < 1 year
[7] = Management Office, length of service >3 years
[8] = Research Building, length of service 1-3 years
[9] = Research Building, length of service >3 years
[10] = Sulfonation Department, length of service 1-3 years
[11] = Sulfonation Department, length of service < 1 year
[12] = Sulfonation Department, length of service >3 years
[13] = human, serum, other: occupational exposure, 46 workers sampled at least three times, 2008, read-out: Serum concentration, GM
[14] = human, serum, other: occupational exposure, 46 workers sampled at least three times, 2012, read-out: Serum concentration, GM
[15] = workers with service length 1–3 years
[16] = workers with service length less than 1 year
[17] = workers with service length more than 3 years
[18] = Electrolytic Department, length of service 1-3 years
[19] = Electrolytic Department, length of service >3 years
[20] = Research Building, length of service < 1 year

Question: What does the source list for `O=C(O)C(F)(F)C(F)(F)C(F)(F)C(F)(F)C(F)(F)C(F)(F)C(F)(F)F` [PFOA, perfluorooctanoic acid]?
Answer: Serum concentration, mean ([1]; All workers, N 302): 1052 ng/mL; Serum concentration, median ([1]; All workers, N 302): 427 ng/mL; Serum concentration, range ([1]; All workers, N 302): 2.5 to 32000 ng/mL; Serum PFAA level [1, 3]: 118; Serum concentration, mean ([1]; Electrolytic department, N 74): 2337 ng/mL; Serum concentration, median ([1]; Electrolytic department, N 74): 1126 ng/mL; Serum concentration, range ([1]; Electrolytic department, N 74): 55.9 to 32000 ng/mL; Serum concentration, mean [1, 4]: 606 ng/mL; Serum concentration, median [1, 4]: 114 ng/mL; Serum concentration, range [1, 4]: 51 to 2600 ng/mL; Serum PFAA level [1, 5]: 48.3; Serum PFAA level [1, 6]: 9.9; Serum PFAA level [1, 7]: 167; Serum concentration, mean ([1]; Management office, N 92): 362 ng/mL; Serum concentration, median ([1]; Management office, N 92): 101 ng/mL; Serum concentration, range ([1]; Management office, N 92): 2.5 to 4380 ng/mL; Serum PFAA level [1, 8]: 124; Serum PFAA level [1, 9]: 276; Serum concentration, mean ([1]; Research building, N 27): 404 ng/mL; Serum concentration, median ([1]; Research building, N 27): 142 ng/mL; Serum concentration, range ([1]; Research building, N 27): 4.7 to 2920 ng/mL; Serum PFAA level [1, 10]: 371; Serum PFAA level [1, 11]: 185; Serum PFAA level [1, 12]: 896; Serum concentration, mean ([1]; Sulfonation department, N 101): 929 ng/mL; Serum concentration, median ([1]; Sulfonation department, N 101): 603 ng/mL; Serum concentration, range ([1]; Sulfonation department, N 101): 4.9 to 4630 ng/mL; Serum concentration, geometric mean [1]: 334 ng/mL; Average serum concentration (Average ± SD) ([1]; female workers, n 89): 659 ± 743 ng/mL; concentration at 2008 calendar year [1, 13]: 368 ng/mL; concentration at 2009 calendar year ([1]; human, serum, other: occupational exposure, 46 workers sampled at least three times, 2009, read-out: Serum concentration, GM): 252 ng/mL; concentration at 2010 calendar year ([1]; human, serum, other: occupational exposure, 46 workers sampled at least three times, 2010, read-out: Serum concentration, GM): 622 ng/mL; concentration at 2011 calendar year ([1]; human, serum, other: occupational exposure, 46 workers sampled at least three times, 2011, read-out: Serum concentration, GM): 692 ng/mL; concentration at 2012 calendar year [1, 14]: 416 ng/mL; Average serum concentration (Average ± SD) ([1]; male workers, n 213): 1,215 ± 2,936 ng mL^−1; Serum concentration, GM [1, 15]: 222 ng/mL; Serum concentration, GM [1, 16]: 68 ng/mL; Serum concentration, GM [1, 17]: 527 ng/mL; Serum concentration, geometric mean ([2]; occupational workers of Wang et al.): 1272 ng/mL; Serum concentration, geometric mean ([2]; workers of the 3 M Company): 1130 ng/mL

Question: Which results are given for `O=S(=O)(O)C(F)(F)C(F)(F)C(F)(F)C(F)(F)C(F)(F)C(F)(F)C(F)(F)C(F)(F)F` [PFOS, perfluorooctanesulfonate]?
Answer: Serum concentration, GM ([1]; 46 workers sampled at least three times, 2008): 1751 ng/mL; Serum concentration, GM ([1]; 46 workers sampled at least three times, 2009): 1095 ng/mL; Serum concentration, GM ([1]; 46 workers sampled at least three times, 2012): 2580 ng/mL; Serum concentration, mean ([1]; All workers, N 302): 5624 ng/mL; Serum concentration, range ([1]; All workers, N 302): 50.3 to 118000 ng/mL; Serum PFAA level [1, 18]: 1827; Serum PFAA level [1, 3]: 772; Serum PFAA level [1, 19]: 1393; Serum concentration, mean ([1]; Electrolytic department, N 74): 1909 ng/mL; Serum concentration, median ([1]; Electrolytic department, N 74): 1541 ng/mL; Serum concentration, range ([1]; Electrolytic department, N 74): 234 to 8501 ng/mL; Serum concentration, mean [1, 4]: 514 ng/mL; Serum concentration, median [1, 4]: 267 ng/mL; Serum concentration, range [1, 4]: 103 to 1890 ng/mL; Serum PFAA level [1, 5]: 641; Serum PFAA level [1, 6]: 140; Serum PFAA level [1, 7]: 728; Serum concentration, mean ([1]; Management office, N 92): 1144 ng/mL; Serum concentration, median ([1]; Management office, N 92): 616 ng/mL; Serum concentration, range ([1]; Management office, N 92): 50.3 to 7910 ng/mL; Serum PFAA level [1, 8]: 888; Serum PFAA level [1, 20]: 318; Serum PFAA level [1, 9]: 890; Serum concentration, mean ([1]; Research building, N 27): 1195 ng/mL; Serum concentration, median ([1]; Research building, N 27): 736 ng/mL; Serum concentration, range ([1]; Research building, N 27): 101 to 7450 ng/mL; Serum PFAA level [1, 10]: 5463; Serum PFAA level [1, 11]: 5174; Serum PFAA level [1, 12]: 7756; Serum concentration, mean ([1]; Sulfonation department, N 101): 14002 ng/mL; Serum concentration, median ([1]; Sulfonation department, N 101): 5544 ng/mL; Serum concentration, range ([1]; Sulfonation department, N 101): 416 to 118000 ng/mL; Serum concentration, geometric mean [1]: 1677 ng/mL; Average serum concentration (Average ± SD) ([1]; female workers, n 89): 2,221 ± 4,791 ng mL^−1; Average serum concentration (Average ± SD) ([1]; male workers, n 213): 7,040 ± 15382 ng mL^−1; Serum concentration below which 85 percent of the population lies ([1]; present study, workers): 6775 ng/mL; Serum PFOS concentration ([1]; serum, sampling year 2008, individual occupational workers): 853 ng/mL and 83 ng/mL and 463 ng/mL and 635 ng/mL and 357 ng/mL and 25000 ng/mL and 4570 ng/mL and 4540 ng/mL and 460 ng/mL and 3220 ng/mL and 4170 ng/mL and 3160 ng/mL and 2690 ng/mL and 650 ng/mL and 620 ng/mL and 250 ng/mL and 3580 ng/mL and 3030 ng/mL and 1770 ng/mL and 5220 ng/mL and 1970 ng/mL and 3940 ng/mL and 2600 ng/mL and 8430 ng/mL and 7450 ng/mL and 3800 ng/mL and 1450 ng/mL and 1280 ng/mL; Serum concentration, GM [1, 15]: 1861 ng/mL; Serum concentration, GM [1, 16]: 782 ng/mL; Serum concentration, GM [1, 17]: 1876 ng/mL; Serum concentration in 85 percent of the sampled Chinese population ([2]; general population): less than 100 ng mL^−1; Serum concentration, median [2]: 33.5 ng/mL; Serum concentration, geometric mean ([2]; workers of the 3 M Company): 910 ng/mL

Question: Which results are given for `O=S(=O)(O)C(F)(F)C(F)(F)C(F)(F)C(F)(F)C(F)(F)C(F)(F)F` [PFHxS, perfluorohexane sulfonate]?
Answer: Serum concentration, mean ([1]; All workers, N 302): 1855 ng/mL; Serum concentration, median ([1]; All workers, N 302): 764 ng/mL; Serum PFAA level [1, 18]: 960; Serum PFAA level [1, 3]: 197; Serum PFAA level [1, 19]: 1116; Serum concentration, mean ([1]; Electrolytic department, N 74): 1469 ng/mL; Serum concentration, median ([1]; Electrolytic department, N 74): 1011 ng/mL; Serum concentration, range ([1]; Electrolytic department, N 74): 46.6 to 6759 ng/mL; Serum concentration, mean [1, 4]: 1956 ng/mL; Serum concentration, median [1, 4]: 1768 ng/mL; Serum concentration, range [1, 4]: 550 to 4690 ng/mL; Serum PFAA level [1, 5]: 65.1; Serum PFAA level [1, 6]: 8.5; Serum PFAA level [1, 7]: 186; Serum concentration, mean ([1]; Management office, N 92): 331 ng/mL; Serum concentration, median ([1]; Management office, N 92): 169 ng/mL; Serum PFAA level [1, 8]: 946; Serum PFAA level [1, 20]: 26; Serum PFAA level [1, 9]: 607; Serum concentration, mean ([1]; Research building, N 27): 842 ng/mL; Serum concentration, median ([1]; Research building, N 27): 506 ng/mL; Serum concentration, range ([1]; Research building, N 27): 3.0 to 3360 ng/mL; Serum PFAA level [1, 10]: 1477; Serum PFAA level [1, 11]: 1129; Serum PFAA level [1, 12]: 3087; Serum concentration, mean ([1]; Sulfonation department, N 101): 3778 ng/mL; Serum concentration, median ([1]; Sulfonation department, N 101): 2250 ng/mL; Serum concentration, geometric mean [1]: 628 ng/mL; Average serum concentration (Average ± SD) ([1]; female workers, n 89): 1,044 ± 1718 ng mL^−1; concentration at 2009 calendar year ([1]; human, serum, 2009, 37 workers, read-out: Serum concentration in workers (decline estimate)): 455 ng/mL; concentration at 2010 calendar year ([1]; human, serum, 2010, 37 workers, read-out: Serum concentration in workers (decline estimate)): 366 ng/mL; concentration at 2008 calendar year [1, 13]: 328 ng/mL; concentration at 2012 calendar year [1, 14]: 1670 ng/mL; Average serum concentration (Average ± SD) ([1]; male workers, n 213): 2,191 ± 3,050 ng mL^−1; Serum concentration, GM [1, 15]: 521 ng/mL; Serum concentration, GM [1, 16]: 212 ng/mL; Serum concentration, GM [1, 17]: 830 ng/mL; Serum concentration, median [2]: 0.98 ng/mL
